Results from patent US10632171B2, “Melanocortin receptor-specific peptides” (Palatin Technologies, Inc., priority 2009, dated 2020).
Peptide text beside a SMILES is read from it.

Tests used:
[1] = target: T1, hMC4-R (Homo sapiens (Human), UniProt P32245); experiment: Assay for agonist activity (cAMP accumulation in HEK-293 cells); assay type: cell-based
Method: Accumulation of intracellular cAMP was examined as a measure of the ability of the peptides of the present invention to elicit a functional response in HEK-293 cells that express MC4-R. Confluent HEK-293 cells that express recombinant hMC4-R were detached from culture plates by incubation in enzyme-free cell dissociation buffer. Dispersed cells were suspended in Earle's Balanced Salt Solution containing 10 mM HEPES (pH 7.5), 1 mM MgCl2, 1 mM glutamine, 0.5% albumin and 0.3 mM 3-isobutyl-1-methyl-xanthine (IBMX), a phosphodiesterase inhibitor. […] Cells were exposed for 15 minutes at 37° C. to peptides of the present invention dissolved in DMSO (final DMSO concentration of 1%) at a concentration range of 0.05-5000 nM in a total assay volume of 200 μL. […] Data analysis was performed by nonlinear regression analysis with Graph-Pad Prism® software. The maximum efficacies of the test peptides of the present invention were compared to that achieved by the reference melanocortin agonist NDP-αMSH.

[2] = Food intake and body weight change in rats; assay type: in vivo, rat; details: for decrease in food consumption compared to control: rats, 0-2, 0-4 and 0-20 hour periods
Method: Change in food intake and body weight was evaluated for selected peptides administered by intravenous (IV) or subcutaneous injection routes. Male Sprague-Dawley rats were obtained from Hilltop Lab Animals, Inc. (Scottsdale, Pa.) or other vendors. Animals were individually housed in conventional polystyrene hanging cages and maintained on a controlled 12 hour on/off light cycle. Water and pelleted food was provided ad libitum. The rats were dosed IV with vehicle or selected peptides (0.3 to 1.0 mg/kg), or dosed subcutaneously with vehicle or selected peptides (doses up to 30 mg/kg). […] The changes in body weight and food intake for the 48 hour and 72 hour periods after dosing can also be measured to determine reversal of changes in body weight and food intake effects back to baseline levels.

[3] = Induction of penile erection in male rats; assay type: in vivo, rat; details: IV, 0.3 or 1 mg/kg
Method: The ability of peptides of the present invention to induce penile erection (PE) in male rats were evaluated with selected peptides. Male Sprague-Dawley rats weighing 250-300 g were kept on a 12 hour on/off light cycle with food and water ad libitum. All behavioral studies were performed between 9 a.m. and 4 p.m. […] Rats are observed for one hour, and the number of yawns, grooming bouts and PEs are recorded in 10-minute bins.

[4] = target: T1, hMC4-R; experiment: Competitive inhibition binding assay using [I125]-NDP-α-MSH; details: averaged; determined using [I125]-NDP-α-MSH (values not marked *); read-out: MC4-R Ki
Method: A competitive inhibition binding assay is performed using membrane homogenates prepared from HEK-293 cells that express recombinant hMC4-R, hMC3-R, or hMC5-R, and from B-16 mouse melanoma cells (containing endogenous MC1-R). In some instances, HEK-293 cells that express recombinant hMC1-R were employed. In the examples that follow, all MC3-R, MC4-R and MC5-R values are for human recombinant receptors. […] Membrane homogenates were incubated with 0.2 nM (for hMC4-R) 0.4 nM (for MC3-R and MC5-R) or 0.1 nM (for mouse B16 MC1-R or hMC1-R) [I^125]-NDP-α-MSH (Perkin Elmer) and increasing concentrations of test peptides of the present invention in buffer containing 25 mM HEPES buffer (pH 7.5) with 100 mM NaCl, 2 mM CaCl2, 2 mM MgCl2, 0.3 mM 1,10-phenanthroline, and 0.2% bovine serum albumin. After incubation for 60 minutes at 37° C., the assay mixture was filtered and the membranes washed three times with ice-cold buffer. Filters were dried and counted in a gamma counter for bound radioactivity. […] Maximal specific binding (100%) was defined as the difference in radioactivity (cpm) bound to cell membranes in the absence and presence of 1 μM NDP-α-MSH. […] Each assay was conducted in triplicate and the actual mean values are described, with results less than 0% reported as 0%. Ki values for test peptides of the present invention were determined using Graph-Pad Prism® curve-fitting software.

[5] = target: T1, hMC4-R; experiment: Competitive binding assay using Eu-NDP-α-MSH; details: averaged; determined using Eu-NDP-α-MSH (values marked *); read-out: MC4-R Ki
Method: Alternatively, a competitive inhibition binding assay was performed employing Eu-NDP-α-MSH (PerkinElmer Life Sciences catalog No. AD0225) with determination by time-resolved fluorometry (TRF) of the lanthanide chelate. […] After incubation for 90 minutes at 37° C., the reaction was stopped by filtration over AcroWell 96-well filter plates (Pall Life Sciences). The filter plates were washed 4 times with 200 μL of ice-cold phosphate-buffered saline. DELFIA Enhancement solution (PerkinElmer Life Sciences) was added to each well. […] Each assay was conducted in duplicate and mean values were utilized. Ki values were determined by curve-fitting with Graph-Pad Prism® software using a one-site fixed-slope competition binding model.

[6] = rat feeding study, 0.3 and 1 mg/kg

T1 sequence (P32245 whole entry): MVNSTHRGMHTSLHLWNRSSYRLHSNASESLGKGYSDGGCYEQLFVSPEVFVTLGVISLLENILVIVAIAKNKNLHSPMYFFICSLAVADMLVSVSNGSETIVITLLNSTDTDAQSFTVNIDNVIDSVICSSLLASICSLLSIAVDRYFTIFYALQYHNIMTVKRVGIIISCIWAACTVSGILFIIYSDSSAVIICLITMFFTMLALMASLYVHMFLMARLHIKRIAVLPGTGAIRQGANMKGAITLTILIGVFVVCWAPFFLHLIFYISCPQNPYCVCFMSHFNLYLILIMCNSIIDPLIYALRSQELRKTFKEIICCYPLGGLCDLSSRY

CC(=O)N[C@@H](CCCNC(=N)N)C(=O)N[C@H]1CC(=O)NCCCC[C@@H](C(N)=O)NC(=O)[C@H](Cc2c[nH]c3ccccc23)NC(=O)[C@H](CCCNC(=N)N)NC(=O)[C@@H](Cc2ccccc2)NC(=O)[C@H](Cc2c[nH]cn2)NC1=O [Peptide No. 1, Ac-Arg-cyclo(Asp-His- D-Phe-Arg-Trp-Lys)- NH2]
Emax ([1]; HEK293, NDP-α-MSH is 100%, read-out: intrinsic activity at MC4-R): 91%
functional classification at MC4-R ([1]; agonist = intrinsic activity 70% or higher, partial agonist 10-70%): agonist
food intake [2, 6]: reduce food intake
rate of change in body weight [2, 6]: decrease the rate of change in body weight
decrease in food consumption compared to control ([2]; 0.3 mg/kg): statistically significant
decrease in food consumption compared to control ([2]; 1 mg/kg): statistically significant
observed spontaneous erections compared to vehicle [3]: statistically significant increase

CC(=O)N[C@@H](CCCNC(=N)N)C(=O)N[C@H]1CC(=O)NCCCC[C@@H](C(N)=O)NC(=O)[C@H](Cc2c[nH]c3ccccc23)NC(=O)[C@H](CCCNC(=N)N)NC(=O)[C@@H](Cc2ccccc2)NC(=O)[C@@H]2C[C@@H](O)CN2C1=O [compound 101, Ac-Arg-cyclo(Glu-Hyp- D-Phe-Arg-Trp-Orn)- NH2]
Ki [4]: 0.003 µM

CC(=O)N[C@@H](CCCNC(=N)N)C(=O)N[C@H]1CC(=O)NCCCC[C@@H](C(N)=O)NC(=O)[C@H](Cc2c[nH]c3ccccc23)NC(=O)[C@H](CCCNC(N)=O)NC(=O)[C@@H](Cc2ccccc2)NC(=O)[C@H](CCCCN)NC1=O [compound 116, Ac-Arg-cyclo(Asp-Lys- D-Phe-Cit-Trp-Lys)-NH2] (HELM PEPTIDE1{[ac].R.D.K.[dF].[Cit].W.K.[am]}$PEPTIDE1,PEPTIDE1,3:R3-8:R3$$$V2.0)
Ki [4]: 0.873 µM

CC(=O)N[C@@H](CCCNC(=N)N)C(=O)N[C@H]1CC(=O)NCCCC[C@@H](C(=O)O)NC(=O)[C@H](Cc2c[nH]c3ccccc23)NC(=O)[C@H](CCCNC(=N)N)NC(=O)[C@@H](Cc2ccccc2)NC(=O)[C@H](C)NC1=O [compound 52, Ac-Arg-cyclo(Asp-Ala- D-Phe-Arg-Trp-Lys)-OH] (HELM PEPTIDE1{[ac].R.D.A.[dF].R.W.K}$PEPTIDE1,PEPTIDE1,3:R3-8:R3$$$V2.0)
Ki [5]: 0.144 µM
